One assay addresses Prothrombin (Bos taurus, UniProt P00735). The experiment in a line: Inhibitory effect against bovine thrombin.
Assay [1] can be described thus: Ratio of inhibitory effect of bovine trypsin to that of bovine thrombin.
For the next assay, the target named is T1, Serine protease 1 (Bos taurus, UniProt P00760).
T1 sequence (P00760 whole entry): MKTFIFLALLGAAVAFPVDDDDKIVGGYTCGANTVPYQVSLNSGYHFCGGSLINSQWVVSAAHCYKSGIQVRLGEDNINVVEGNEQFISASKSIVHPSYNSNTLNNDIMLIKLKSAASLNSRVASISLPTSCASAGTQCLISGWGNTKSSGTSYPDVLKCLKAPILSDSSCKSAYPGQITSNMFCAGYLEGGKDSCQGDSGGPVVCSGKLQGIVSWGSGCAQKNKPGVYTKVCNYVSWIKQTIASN
The assay is described as follows: Inhibitory effect of compound was measured in bovine trypsin.

As a reminder, the Ki is a dissociation constant, usually derived from enzyme kinetics or from competition with a known ligand. Higher therefore signals lower affinity. For the compound `N=C(N)c1ccc(C[C@@H](NC(=O)CNS(=O)(=O)c2ccc3ccccc3c2)C(=O)N2CCCCC2)cc1`, affinity on Prothrombin was put at a Ki of 0.0065 µM.
Compound `CCNC(=N)c1ccc(C[C@H](NS(=O)(=O)c2ccc3ccccc3c2)C(=O)N2CCCCCC2)cc1` had a Ki on Prothrombin of 13.6 µM.
As for `N/C(=N\O)c1ccc(C[C@H](NS(=O)(=O)c2ccc3ccccc3c2)C(=O)N2CCCCCC2)cc1`, the Ratio in assay [1] came to 277.
For `NN=C(N)c1ccc(C[C@@H](NC(=O)CNS(=O)(=O)c2ccc3ccccc3c2)C(=O)N2CCCCCC2)cc1`, the Ki at Prothrombin came out at 2.7 µM.
On to `CNC(=N)c1ccc(C[C@H](NS(=O)(=O)c2ccc3ccccc3c2)C(=O)N2CCCCCC2)cc1`, for which the Ratio in assay [1] turned out to be 12000.
On to `NN=C(N)c1ccc(C[C@@H](NC(=O)CNS(=O)(=O)c2ccc3ccccc3c2)C(=O)N2CCCCC2)cc1`, for which the results for the Ki on Prothrombin and at Serine protease 1 were 5.37 µM and 192 µM, respectively.
For `CNC(=N)c1ccc(C[C@@H](NC(=O)CNS(=O)(=O)c2ccc3ccccc3c2)C(=O)N2CCCCC2)cc1`, the Ratio in assay [1] worked out at 19.
Regarding `N=C(NO)c1ccc(C[C@H](NS(=O)(=O)c2ccc3ccccc3c2)C(=O)N2CCCCCC2)cc1`, the Ki on Prothrombin worked out at 1.14 µM; on Serine protease 1, 316 µM.
On Prothrombin, `N=C(NN)c1ccc(C[C@H](NS(=O)(=O)c2ccc3cc4ccccc4cc3c2)C(=O)N2CCCCCC2)cc1` had an inhibitory constant (Ki) of 0.001 µM.
For `CN=C(N)c1ccc(C[C@H](NS(=O)(=O)c2ccc3ccccc3c2)C(=O)N2CCCCCC2)cc1`, the Ki on Prothrombin amounted to 0.0455 µM; at Serine protease 1, 545 µM.
`N=C(N)c1ccc(C[C@@H](NC(=O)CNS(=O)(=O)c2ccc3ccccc3c2)C(=O)N2CCCCCC2)cc1` registered a Ki on Prothrombin of 0.02 µM.
As to `CN=C(N)c1ccc(C[C@@H](NC(=O)CNS(=O)(=O)c2ccc3ccccc3c2)C(=O)N2CCCCC2)cc1`, the Ki worked out at 4.32 µM on Prothrombin and 81.5 µM at Serine protease 1.
Turning to `N=C(N)c1ccc(C[C@H](NS(=O)(=O)c2ccc3cc4ccccc4cc3c2)C(=O)N2CCCCCC2)cc1`, the inhibitory constant (Ki) on Prothrombin stood at 0.05 µM.
As to `N=C(NN)c1ccc(C[C@@H](NC(=O)CNS(=O)(=O)c2ccc3ccccc3c2)C(=O)N2CCCCC2)cc1`, the Ratio in assay [1] is 36.
In the case of `N=C(N)c1ccc(C[C@H](NS(=O)(=O)c2ccc3ccccc3c2)C(=O)N2CCCCCC2)cc1`, the Ki on Prothrombin stood at 0.0524 µM; at Serine protease 1, 8.65 µM. Besides, the Ratio in assay [1] was 166.
As to `N=C(NN)c1ccc(C[C@H](NS(=O)(=O)c2ccc3ccccc3c2)C(=O)N2CCCCCC2)cc1`, the Ki at Prothrombin was 0.00147 µM; at Serine protease 1 it was 3.73 µM. The Ratio in assay [1] is 2540.

The record behind these values is ChEMBL document CHEMBL1129885, “Rational design of selective thrombin inhibitors” (Bioorg Med Chem Lett, 1997).
